{
  "source": "patent US20250241294A1",
  "about": "“ITACONATE PRESERVATION SOLUTION” (University Health Network, priority 2024, published 2025)",
  "key": {"[1]": {"test_system": "Human BEAS-2B bronchial epithelial cells", "experiment": "BEAS-2B cold ischemia-reperfusion injury model: cell morphology", "format": "cell-based", "experimental": "(§1) Human BEAS-2B bronchial epithelial cells were cultured until subconfluence in 96-well plates with standard media (DMEM+10% FBS). […] These parameters simulated the real-life environment of standard lung preservation.\n(§2) This was followed by up to 48 h of warm reperfusion at 37° C. in regular cell culture media (at 5% CO2). Regular cell media was used as negative control for the simulated cold ischemia, and regular LPD was used as positive control. Upon switching to LPD, the four different itaconate derivatives in the three different concentrations were assessed and compared to regular LPD and standard media during cold static preservation. Confluence and apoptosis measurements (based on Caspase3/7 dye) were taken by serial imaging in an Incucyte S3 Live Cell imaging device to assess the efficacy of the itaconate-containing solutions in preserving each cell culture.\n(§3) Four different itaconate molecules were tested, each in three different dosages and four replicates: underivatized itaconic acid (ITA) at 5 mM, 7.5 mM, and 10 mM; pH-corrected itaconic acid (NaOH-ITA) at 5 mM, 7.5 mM, and 10 mM; dimethyl itaconate (DI) at 0.125 mM, 0.25 mM, and 0.5 mM; and 4-octyl itaconate (4OI) at 0.125 mM, 0.25 mM, and 0.5 mM. […] Upon switching to LPD, the four different itaconate molecules in the three different concentrations each were assessed and compared to regular LPD (positive control) and standard media (negative control) during cold static preservation. Four replicates for each condition were used.\nFor example, FIG. 6B illustrates the cell morphology of cells exposed to i) LPD (positive control), ii) DMEM (negative control), iii) ITA 10 mM, iv) DI 0.25 mM, and v) 4OI 0.25 mM following cold ischemia. FIG. 6C illustrates the cell morphology of these groups at reperfusion at t=22 h. […] The cells cultured in DMEM (the negative control) died during cold ischemia and were washed away during reperfusion, as shown by a comparison of FIG. 6B to FIG. 6C."}, "pig lungs": {"test_system": "pig lungs", "experiment": "Porcine ex vivo lung perfusion (EVLP) model of lung transplantation: lung physiology", "set-up": "species or system Yorkshire pigs", "experimental": "(§4) Lungs were surgically harvested from Yorkshire pigs weighing 31-38 kg. The dimethyl itaconate (DI) 0.25 mM solution was selected for testing in vivo due to positive performance in vitro. The lungs were randomized to be flushed with a flush solution of Low Potassium Dextran (LPD) in two groups, with or without 0.25 mM dimethyl itaconate (DI) (n=4 pairs of lungs per group). For flushing, 2 L of flush solution were administered antegrade, and […] was administered retrograde prior to lung static preservation. Retrograde flush solution was collected in a sterile bag and used to coat the lungs during the preservation period. When appropriate (based on assigned randomization), DI was added to all 3 L of flush solution. Surgical teams were blinded to the intervention.\n(§5) Still referring to FIG. 5C, lungs were subsequently preserved at 4° C. for an extended period of 36 h, then reperfused on EVLP for 6 h. EVLP allows lungs to be ventilated, reperfused to normothermia, and evaluated in an extracorporeal platform. EVLP performance was measured because it strongly correlates with post-transplant, recipient performance. Multiple physiological parameters of lung function were measured, and perfusate and tissue biopsies were collected. The measured physiological parameters included plateau airway pressure, change in partial pressure of oxygen delta PO2 (left atrium PO2—pulmonary artery PO2), static compliance, pulmonary vascular resistance (PVR), total perfusate loss, and wet to dry (W/D) ratios.\n(§6) Statistical analysis was performed with GraphPad prism 9.0 (GraphPad Software, San Diego, CA). Two-way repeated measures ANOVA with Dunn's post-test based on the distribution of data and Mann-Whitney test were used for comparison between groups, when appropriate. Values are presented as mean±SEM unless stated otherwise, and p values <0.05 are considered statistically significant."}, "[2]": {"test_system": "Human BEAS-2B bronchial epithelial cells", "experiment": "BEAS-2B cold ischemia-reperfusion injury model: confluence by Incucyte imaging", "format": "cell-based", "conditions": "for confluence, mean percent difference compared to standard LPD alone: immediately upon reperfusion", "experimental": "as §1, §2, §3\nFIG. 5D illustrates the cell confluence results of the in vitro phase. T=0 represents the cell confluence reached before the 18-hour period of cold ischemia described with respect to FIG. 5A. Cells were cultured until subconfluence (shown at t=4 h in FIG. 5D), followed by cold ischemia from t=4 h to t=22 h. T=22 h represents the beginning of warm reperfusion as described with respect to FIG. 5A."}, "[3]": {"test_system": "inflammatory cytokines in both tissue and perfusate", "experiment": "Porcine EVLP model: cytokine analysis of lung tissue and perfusate", "format": "in vivo, Yorkshire pigs", "conditions": "DI 0.25 mM flush vs control", "experimental": "as §4, §5, §6"}, "[4]": {"test_system": "Human bronchiole epithelial cells (BEAS2B)", "experiment": "Intracellular free ferrous iron (FerroOrange) after cold storage", "format": "cell-based", "conditions": "LPD + 0.25 mM DI vs LPD alone; 24 h at 10° C.; p<0.001", "experimental": "This example aimed to determine whether an organ preservation solution having 0.25 mM dimethyl itaconate (DI) could have anti-ferroptotic properties. Human bronchiole epithelial cells (BEAS2B) were cultured to sub-confluence in standard culture medium (DMEM+10% fetal bovine serum) at 37° C. Upon reaching sub-confluence, the culture medium was aspirated completely, and cells were washed twice with phosphate-buffered saline (PBS) before adding cooled LPD or LPD supplemented with DI at a concentration of 0.25 mM. Cells were then placed in a 10° C. refrigeration unit for 24 hours. […] To measure intracellular iron between treatment groups after storage for 24 h at 10° C., FerroOrange, a fluorescent probe for free ferrous ions (Fe2+), was used according to the manufacturer's protocol (Dojindo Molecular Laboratories, MD, USA).\nA […] FerroOrange solution was prepared in serum-free DMEM. Cells were washed with serum-free DMEM three times before being exposed to FerroOrange solution. The plate was then stored at 37° C. for 30 minutes. Fluorescence was quantified with a Cytation microplate reader (BioTek, VT, USA), with the top reading mode at an excitation wavelength of 543 nm and emission wavelength of 580 nm."}, "[5]": {"test_system": "Human BEAS-2B bronchial epithelial cells", "experiment": "BEAS-2B cold ischemia-reperfusion injury model: apoptosis (Caspase3/7 dye)", "format": "cell-based", "conditions": "immediately upon reperfusion, p<0.001", "experimental": "as §1\nThis was followed by up to 48 h of warm reperfusion at 37° C. in regular cell culture media (at 5% CO2). Regular cell media was used as negative control for the simulated cold ischemia, and regular LPD was used as positive control. Upon switching to LPD, the four different itaconate derivatives in the three different concentrations were assessed and compared to regular LPD and standard media during cold static preservation. […]\nas §3, with “Four replicates for each condition were used.” left out"}},
  "data": [
    {"smiles": "C=C(CC(=O)OC)C(=O)OC", "note": "[DI, dimethyl itaconate]", "values": [
      {"measurement": "cellular morphology", "setting": "[1]; DI in LPD, 18 h cold ischemia at 4° C., reperfusion (FIG. 6D)", "value": "did not indicate any signs of shrinkage, pyknosis, or karyorrhexis"},
      {"measurement": "areas of edema on dorsal lung surface", "setting": "pig lungs; flush LPD with 0.25 mM DI vs LPD, 36 h at 4° C., after 6 h of perfusion", "value": "more pronounced in the control group when compared to the DI group"},
      {"measurement": "plateau airway pressures", "setting": "pig lungs; flush LPD+DI 0.25 mM vs LPD, 36 h at 4° C., 6 h EVLP, p<0.0001", "value": "lower"},
      {"measurement": "delta PO2 (left atrium PO2—pulmonary artery PO2)", "setting": "pig lungs; flush LPD+DI 0.25 mM vs LPD, 36 h at 4° C., 6 h EVLP, p<0.01", "value": "higher"},
      {"measurement": "static compliances", "setting": "pig lungs; flush LPD+DI 0.25 mM vs LPD, 36 h at 4° C., 6 h EVLP, p<0.05", "value": "higher"},
      {"measurement": "total perfusate loss", "setting": "pig lungs; flush LPD+DI 0.25 mM vs control, 6 h EVLP, not statistically significant", "value": "trend toward reduced total perfusate loss"},
      {"measurement": "wet-to-dry ratios", "setting": "pig lungs; flush LPD+DI 0.25 mM vs control, trend, not statistically significant", "value": "reduced wet-to-dry ratios"},
      {"measurement": "confluence ranking among tested solutions", "setting": "[2]; DI 0.125 mM", "value": "highest confluence"},
      {"measurement": "confluence, mean percent difference compared to standard LPD alone", "setting": "[2]; DI 0.125 mM, CI 2.0-13.7, p<0.01", "value": 7.84, "unit": "%"},
      {"measurement": "confluence ranking among tested solutions", "setting": "[2]; DI 0.25 mM", "value": "highest confluence"},
      {"measurement": "confluence, mean percent difference compared to standard LPD alone", "setting": "[2]; DI 0.25 mM, CI 12.34-0.14, p<0.05", "value": 6.24, "unit": "%"},
      {"measurement": "confluence compared to positive control (LPD)", "setting": "[2]; after 24 h of reperfusion, p<0.001", "value": "differences remained favoring DI"},
      {"measurement": "IL-6 expression levels in the perfusate", "setting": "[3]; after 6 hours, p<0.05", "value": "significantly reduced"},
      {"measurement": "IL-8 expression levels in the perfusate", "setting": "[3]; after 6 hours, p<0.05", "value": "reduced IL-8 expression levels"},
      {"measurement": "perfusate expression of TNF-α", "setting": "[3]; after 6 hours, p<0.05", "value": "significantly reduced perfusate expression of TNF-α"},
      {"measurement": "IL-10 expression levels in the perfusate", "setting": "[3]; after 6 hours, p<0.05 (FIG. 5M)", "value": "reduced IL-10 expression levels"},
      {"measurement": "tissue IL-8 expression", "setting": "[3]; lung tissue, p<0.0001", "value": "reduced tissue IL-8 expression"},
      {"measurement": "intracellular iron (FerroOrange fluorescence)", "setting": "[4]", "value": "significantly reduced amount of intracellular iron"}
    ]},
    {"smiles": "C=C(CC(=O)O)C(=O)O", "note": "[NaOH-ITA, itaconic acid]", "values": [
      {"measurement": "cell morphology", "setting": "[1]; higher concentrations of NaOH-ITA in LPD, after 18 h cold ischemia at 4° C.", "value": "presented morphological changes"},
      {"measurement": "apoptosis counts compared to positive controls", "setting": "[5]; higher concentrations of NaOH-ITA", "value": "elevated apoptosis counts"}
    ]},
    {"smiles": "C=C(CC(=O)O)C(=O)O", "note": "[ITA, itaconic acid]", "values": [
      {"measurement": "cell morphology", "setting": "[1]; ITA in LPD (10 mM shown), 18 h cold ischemia at 4° C., 50% O2, compared to LPD", "value": "cell shrinkage, nuclear pyknosis (condensation), and start of karyorrhexis (fragmentation), consistent with irreversible cell injury"},
      {"measurement": "confluence over reperfusion", "setting": "[2]; ITA in LPD, over 48 hours of reperfusion at 37° C.", "value": "stable confluence"},
      {"measurement": "apoptosis counts compared to positive controls", "setting": "[5]; ITA in LPD", "value": "elevated apoptosis counts"}
    ]},
    {"smiles": "C=C(CC(=O)OCCCCCCCC)C(=O)O", "note": "[4OI, 4-octyl itaconate]", "values": [
      {"measurement": "cell morphology", "setting": "[1]; 0.25 mM and 0.5 mM 4OI in LPD, 18 h cold ischemia at 4° C., reperfusion", "value": "morphological cell injury to a lower extent"},
      {"measurement": "cell confluence compared to standard LPD alone or DI", "setting": "[2]; 4OI in LPD, 18 h cold ischemia, reperfusion", "value": "did not perform favorably"}
    ]}
  ]
}
